Source: US6492578B1, “Expression of herbicide tolerance genes in plant plastids” (Calgene LLC, priority 1998, dated 2002)
Read-outs that look alike come from different tables or passages of the source.

What was measured:
[1] = system: 5177 transformed tobacco lines and control lines; assay: Norflurazon resistance analysis (watering with Norflurazon solution); type: in vivo; details: 3 μM Norflurazon solution
Procedure: An experiment was set up to determine the efficacy of the Crt I trait with respect to resistance to the herbicide Norflurazon. Three 5177 transformed lines, 74-1B-P, 74-2-A, and 74-7-C and three control lines were planted. Plants were grown for seven weeks and then watered with a 3 μM Norflurazon solution. Plants negative for the presence of the crtI plastid-borne gene were bleached by Norflurazon treatment, positive plants stayed green and continued to grow.

Nb2 cell line = assay: Nb2 cell proliferation bioactivity assay (MTS); type: cell-based; details: pH adjusted and centrifuged extract of pMON38794 tobacco, 48 hrs, MTS (FIG. 5)
Procedure: Bioactivity of the pH adjusted and centrifuged extract was tested using cells from an Nb2 cell line. These cells proliferate in the presence of growth hormone and other […] type compounds. The assay involves putting various concentrations of growth hormone-containing extract into a 96 well plate. Then a constant amount of cells are added to each well. The plate is incubated for 48 hrs and then a reagent called MTS is added. Metabolizing cells take up the MTS and convert it to a blue colored substance. The more cells there are the more blue color in the well. The blue color is measured using a spectrophotometer. The number of cells should be proportional to the concentration of growth hormone in the media. At some high concentration one expects that the cells will become saturated with growth hormone and that the dose response will level off. At very low hGH concentrations essentially no enhanced growth is seen.

[2] = system: transplastomic tobacco lines containing EPSPS genes; assay: In vitro glyphosate selection of shoots from plastid transformation with EPSPS constructs; type: cell-based
Procedure: (§1) A transplastomic tobacco line homoplasmic for the construct pMON38773 was tested in vitro to determine the highest level of glyphosate tolerance. Explant tissue was prepared from leaf pieces of nontransgenic wild type tobacco control, Havanna, plants and the homoplasmic tobacco line 38773-6 and cultured for regeneration of shoots on TSO medium (described above) supplemented with glyphosate levels of 50 μM, 75 μM, 100 μM, 150 μM and 200 μM. The number of explants producing shoots was determined at 3 weeks and 6 weeks after explant preparation and culturing on glyphosate containing medium.
Additional transplastomic lines were tested in vitro for glyphosate tolerance as bed above.
The numbers in parentheses are the number of shoots resistant to selection at 1 mM glyphosate.

[3] = system: homoplasmic tobacco line 38773-6; assay: In vitro glyphosate tolerance: shoot regeneration from leaf explants on TSO medium with glyphosate; type: cell-based, Nicotiana tabacum cv. Havana
Procedure: as §1

[4] = system: nontransgenic wild type tobacco control, Havanna; assay: as above; type: cell-based, Nicotiana tabacum cv. Havana; details: for Number Regenerating 3 Weeks / Number Regenerating 6 Weeks: 10 explants
Procedure: as §1

EPSPS enzyme [5] = type: biochemical
Procedure: (§2) Methods for the analysis of EPSPS enzyme activity are described in Padgette et al. (J. Biol. Chem. (1988)263:1798-1802 and Arch. Biochem. Biophys. (1987)258:564-573) and Wibbenmeyer et al. (Biochem. Biophys. Res. Commun. (1988)153:760-766).
(§3) In addition, other transplastomic lines were analyzed for tolerance to spraying with various levels of glyphosate as described above. Specific activity is measured as the amount of exogenously added Phosphoenol pyruvate (PEP) converted to […] per unit protein in the plant extract. Addition of glyphosate tests sensitivity of the EPSPS enzyme to glyphosate.

EPSPS enzyme [6] = molecular target: T1, EPSPS enzyme (Agrobacterium sp., UniProt Q9R4E4); type: biochemical
T1 construct: from tissue; host or cells: extracts of wild-type and transplastomic tobacco plants
T1 sequence (Q9R4E4 whole entry): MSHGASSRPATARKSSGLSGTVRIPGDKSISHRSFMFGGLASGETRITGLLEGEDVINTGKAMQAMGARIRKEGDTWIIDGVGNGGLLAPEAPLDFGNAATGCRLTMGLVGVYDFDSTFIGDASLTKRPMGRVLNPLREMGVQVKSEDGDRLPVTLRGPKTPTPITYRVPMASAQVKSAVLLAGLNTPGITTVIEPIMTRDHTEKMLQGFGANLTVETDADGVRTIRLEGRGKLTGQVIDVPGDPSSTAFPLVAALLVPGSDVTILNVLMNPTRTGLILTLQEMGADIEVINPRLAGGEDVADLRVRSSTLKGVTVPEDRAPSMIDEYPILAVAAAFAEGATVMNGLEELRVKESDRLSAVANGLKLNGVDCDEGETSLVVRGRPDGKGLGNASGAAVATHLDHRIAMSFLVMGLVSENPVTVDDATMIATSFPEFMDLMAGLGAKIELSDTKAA
Procedure: as §2, §3

[7] = system: transplastomic (and nuclear pMON10154) tobacco lines expressing EPSPS; assay: Glyphosate spray tolerance of other lines expressing EPSPS; type: in vivo
Procedure: (§4) Homoplasmic tobacco plants of the line 38773-6 are sprayed with glyphosate using a track sprayer at concentrations corresponding to 0 oz/acre, 16 oz/acre, 32 oz/acre and 64 oz/acre to test for whole plant tolerance. Plant height was measured before and after s praying with glyphosate. The vegetative injury data was collected two weeks after spraying, while the reproductive injury data was collected at plant maturity.
as §3

[8] = system: Wild type tobacco (nontransformed control plants); assay: Whole plant glyphosate spray test (track sprayer); type: in vivo
Procedure: as §4
(§5) Tolerance is characterized by the continued growth and greening of tissues sprayed with glyphosate. However, as the concentration of glyphosate applied increased, there was a corresponding increase in the level of vegetative injury.

[9] = system: Homoplasmic tobacco plants of the line 38773-6; assay: Whole plant glyphosate spray test (track sprayer); type: in vivo
Procedure: as §4, §5

[10] = line 38773-6, glyphosate 50 μM, 8 explants
[11] = line 38773-6, glyphosate 75 μM, 18 explants
[12] = line 38773-6, glyphosate 100 μM, 17 explants
[13] = line 38773-6, glyphosate 150 μM, 18 explants
[14] = line 38773-6, glyphosate 200 μM, 16 explants
[15] = line pMON10154 (nuclear), glyphosate spray
[16] = line pMON30123, glyphosate spray
[17] = line pMON30130, glyphosate spray
[18] = line pMON38773, glyphosate spray
[19] = line pMON38798, glyphosate spray
[20] = line pMON45201, glyphosate spray

`CNc1cnn(-c2cccc(C(F)(F)F)c2)c(=O)c1Cl` [Norflurazon] was tested. Which Norflurazon resistance ([1]; control plants) did it give?
Its Norflurazon resistance is “susceptible”.

And the “Result (Norflurazon resistance)” value ([1]; line 74-1B-P (homoplasmic 5177))?
The value was “Resistant”.

And the “Result (Norflurazon resistance)” value ([1]; line 74-2-A (homoplasmic 5177))?
Its value is “Resistant”.

What about the “Result (Norflurazon resistance)” value ([1]; line 74-7-C (homoplasmic 5177)) of the same compound?
The value was “Resistant”.

And the “Result (Norflurazon resistance)” value ([1]; line 75-5D-A (Control))?
Its value is “Susceptible”.

What about the “Result (Norflurazon resistance)” value ([1]; line 2560A Xanthi (Control)) of the same compound?
The value was “Susceptible”.

What about the “Result (Norflurazon resistance)” value ([1]; line Xanthi (Control), plants grown seven weeks) of the same compound?
Its value is “Susceptible”.

And the Norflurazon resistance ([1]; three homoplasmic 5177 tobacco lines)?
Its Norflurazon resistance is “resistant”.

“hGH: Human Growth Hormone expressed from tobacco plastids (pMON38794), tested as pH adjusted and centrifuged leaf extract” was tested. Which “bioactivity: absorbance vs hGH concentration” value (Nb2 cell line) did it give?
The value was “sigmoidal shape”.

How did the “glyphosate selection level tolerated by generated tobacco lines” value ([2]; in vitro selection, Table 5 lines) turn out when `O=C(O)CNCP(=O)(O)O` [glyphosate, N-phosphonomethylglycine] was run?
The value was 1 mM.

And the “No. of shoots Gly 50 uM(+)” value ([2]; pMON38766 (T7), 6 Spec/strep (+) shoots)?
The value was 0.

What about the “No. of shoots Gly 50 uM(+)” value ([2]; pMON38766 (Wild), 1 Spec/strep (+) shoot) of the same compound?
The value was 0.

And the “No. of shoots Gly 50 uM(+)” value ([2]; pMON38773 (Wild), 9 Spec/strep (+) shoots)?
The value was 5.

And the “No. of shoots positive at 1 mM glyphosate” value ([2]; pMON38773 (Wild), number in parentheses)?
The value was 1.

And the “No. of shoots Gly 50 uM(+)” value ([2]; pMON38793, 8 Spec/strep (+) shoots)?
Its value is 0.

What about the “No. of shoots Gly 50 uM(+)” value ([2]; pMON38796, 4 Spec/strep (+) shoots) of the same compound?
Its value is 0.

And the “No. of shoots Gly 50 uM(+)” value ([2]; pMON38797 (Wild), 2 Spec/strep (+) shoots)?
Its value is 0.

What about the “No. of shoots Gly 50 uM(+)” value ([2]; pMON38798, 6 Spec/strep (+) shoots) of the same compound?
The value was 6.

And the “No. of shoots Gly 50 uM(+)” value ([2]; pMON45201, 9 Spec/strep (+) shoots)?
Its value is 3.

And the “% Explant Regeneration” value ([3]; line 38773-6, glyphosate 50 μM)?
Its value is 100%.

What about the “Number Regenerating 3 Weeks” value [3, 10] of the same compound?
Its value is 5.

What about the “Number Regenerating 6 Weeks” value [3, 10] of the same compound?
The value was 8.

What about the “% Explant Regeneration” value ([3]; line 38773-6, glyphosate 75 μM) of the same compound?
The value was 100%.

What about the “Number Regenerating 3 Weeks” value [3, 11] of the same compound?
Its value is 14.

What about the “Number Regenerating 6 Weeks” value [3, 11] of the same compound?
Its value is 18.

And the “% Explant Regeneration” value ([3]; line 38773-6, glyphosate 100 μM)?
The value was 88%.

And the “Number Regenerating 3 Weeks” value [3, 12]?
The value was 12.

And the “Number Regenerating 6 Weeks” value [3, 12]?
Its value is 15.

And the “% Explant Regeneration” value ([3]; line 38773-6, glyphosate 150 μM)?
The value was 89%.

What about the “Number Regenerating 3 Weeks” value [3, 13] of the same compound?
The value was 10.

What about the “Number Regenerating 6 Weeks” value [3, 13] of the same compound?
The value was 16.

And the “% Explant Regeneration” value ([3]; line 38773-6, glyphosate 200 μM)?
Its value is 86%.

And the “Number Regenerating 3 Weeks” value [3, 14]?
The value was 8.

What about the “Number Regenerating 6 Weeks” value [3, 14] of the same compound?
The value was 15.

And the “glyphosate level tolerated in vitro” value ([3]; tobacco expressing EPSPS in plastids (pMON38773), shoot regeneration)?
The value was “at least 200 μM”.

And the “% Explant Regeneration” value ([4]; glyphosate 50 μM)?
The value was 0%.

What about the “Number Regenerating 3 Weeks” value ([4]; glyphosate 50 μM) of the same compound?
Its value is 0.

And the “Number Regenerating 6 Weeks” value ([4]; glyphosate 50 μM)?
The value was 0.

What about the “% Explant Regeneration” value ([4]; glyphosate 75 μM) of the same compound?
The value was 0%.

What about the “Number Regenerating 3 Weeks” value ([4]; glyphosate 75 μM) of the same compound?
Its value is 0.

What about the “Number Regenerating 6 Weeks” value ([4]; glyphosate 75 μM) of the same compound?
The value was 0.

And the “% Explant Regeneration” value ([4]; glyphosate 100 μM)?
The value was 0%.

And the “Number Regenerating 3 Weeks” value ([4]; glyphosate 100 μM)?
Its value is 0.

And the “Number Regenerating 6 Weeks” value ([4]; glyphosate 100 μM)?
Its value is 0.

And the “% Explant Regeneration” value ([4]; glyphosate 150 μM)?
The value was 0%.

And the “Number Regenerating 3 Weeks” value ([4]; glyphosate 150 μM)?
Its value is 0.

What about the “Number Regenerating 6 Weeks” value ([4]; glyphosate 150 μM) of the same compound?
The value was 0.

And the “% Explant Regeneration” value ([4]; glyphosate 200 μM)?
Its value is 0%.

What about the “Number Regenerating 3 Weeks” value ([4]; glyphosate 200 μM) of the same compound?
The value was 0.

What about the “Number Regenerating 6 Weeks” value ([4]; glyphosate 200 μM) of the same compound?
The value was 0.

What about the “SPECIFIC ACTIVITY (nmol/min/mg) +1 mM gly” value (EPSPS enzyme [5]; Wild-type plant extract, No gly: 3.4) of the same compound?
The value was 0 nmol/min/mg.

What about the “SPECIFIC ACTIVITY (nmol/min/mg) +1 mM gly” value (EPSPS enzyme [5]; line pMON30123 extract, No gly: 4.0) of the same compound?
The value was 0 nmol/min/mg.

And the “SPECIFIC ACTIVITY (nmol/min/mg) +1 mM gly” value (EPSPS enzyme [5]; line pMON30130 extract, No gly: 6.2)?
Its value is 0 nmol/min/mg.

And the “SPECIFIC ACTIVITY (nmol/min/mg) +1 mM gly” value (EPSPS enzyme [5]; line pMON38798 extract, No gly: 17.2)?
The value was 14.7 nmol/min/mg.

What about the “SPECIFIC ACTIVITY (nmol/min/mg) +1 mM gly” value (EPSPS enzyme [5]; line pMON45204 extract, No gly: 339.9) of the same compound?
The value was 371.8 nmol/min/mg.

And the “SPECIFIC ACTIVITY (nmol/min/mg) +1 mM gly” value (EPSPS enzyme [6]; line pMON10154 (nuclear CP4 control) extract, No gly: 19.0)?
Its value is 18.4 nmol/min/mg.

And the “SPECIFIC ACTIVITY (nmol/min/mg) +1 mM gly” value (EPSPS enzyme [6]; line pMON38773 extract, No gly: 16.7)?
The value was 6.7 nmol/min/mg.

And the “Reproductive tolerance (oz/acre)” value [7, 15]?
Its value is 64 oz/acre.

And the “Vegetative tolerance (oz/acre)” value [7, 15]?
The value was 128 oz/acre.

What about the “Reproductive tolerance (oz/acre)” value [7, 16] of the same compound?
Its value is 0 oz/acre.

And the “Vegetative tolerance (oz/acre)” value [7, 16]?
The value was 0 oz/acre.

And the “Reproductive tolerance (oz/acre)” value [7, 17]?
Its value is 0 oz/acre.

What about the “Vegetative tolerance (oz/acre)” value [7, 17] of the same compound?
The value was 0 oz/acre.

What about the “Reproductive tolerance (oz/acre)” value [7, 18] of the same compound?
The value was 16 oz/acre.

What about the “Vegetative tolerance (oz/acre)” value [7, 18] of the same compound?
Its value is 32 oz/acre.

And the “Reproductive tolerance (oz/acre)” value [7, 19]?
Its value is 16 oz/acre.

What about the “Vegetative tolerance (oz/acre)” value [7, 19] of the same compound?
Its value is 32 oz/acre.

What about the “Reproductive tolerance (oz/acre)” value [7, 20] of the same compound?
Its value is 32 oz/acre.

And the “Vegetative tolerance (oz/acre)” value [7, 20]?
The value was 32 oz/acre.

And the glyphosate level tolerated ([7]; subsequent experiments with additional transformed transplastomic lines)?
Its glyphosate level tolerated is 64 oz/acre.

And the “Reproductive tolerance (oz/acre)” value ([8]; Wild-type, glyphosate spray)?
Its value is 0 oz/acre.

And the “Vegetative tolerance (oz/acre)” value ([8]; Wild-type, glyphosate spray)?
Its value is 0 oz/acre.

And the “susceptibility to sprayed glyphosate” value ([8]; nontransformed control plants, glyphosate concentrations as low as 16 oz/acre)?
Its value is “highly susceptible”.

And the “glyphosate concentration tolerated (vegetative tissue injury)” value ([9]; initial results, homoplasmic tobacco lines sprayed)?
Its value is 16 oz/acre.

And the “glyphosate rate with a good level of tolerance” value ([9]; transplastomic lines, spray)?
The value was 32 oz/acre.
